In PubChem BioAssay AID2060504 (Molecular Pharmacology Branch, DTP, NCI, 2025):

Test system: 636577-100-R-J1-PDC complex spheroid viability
Assay: Anticancer human tumor 636577-100-R-J1-PDC patient-derived endometrial adenocarcinoma cell line growth inhibition [GQUAD]
Settings: for IC50: curve of first compound; for viability, T/C: stronger effect = lower value
In short: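 Tumor cells were grown as complex spheroids with HUVEC endothelial cells and mesenchymal stem cells as stroma. G-quadruplex stabilizers were combined with targeted agents over half-log dilutions from near the clinical Cmax, or from 10 microM.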

[1] = second compound 0.0316 µM, first compound 0.0316 µM
[2] = second compound 0.0316 µM, first compound 0.316 µM
[3] = second compound 0.1 µM, first compound 0.0316 µM
[4] = second compound 0.1 µM, first compound 0.316 µM
[5] = second compound 0.316 µM, first compound 0.0316 µM
[6] = second compound 0.316 µM, first compound 0.316 µM
[7] = second compound 1 µM, first compound 0.0316 µM
[8] = second compound 1 µM, first compound 0.316 µM
[9] = second compound 3.16 µM, first compound 0.0316 µM
[10] = second compound 3.16 µM, first compound 0.316 µM
[11] = second compound 10 µM, first compound 0.0316 µM
[12] = second compound 10 µM, first compound 0.316 µM
[13] = second compound 0.0316 µM, first compound 0.1 µM
[14] = second compound 0.0316 µM, first compound 1 µM
[15] = second compound 0.0316 µM, first compound 3.16 µM
[16] = second compound 0.0316 µM, first compound 10 µM
[17] = second compound 0.1 µM, first compound 0.1 µM
[18] = second compound 0.1 µM, first compound 1 µM
[19] = second compound 0.1 µM, first compound 3.16 µM
[20] = second compound 0.1 µM, first compound 10 µM
[21] = second compound 0.316 µM, first compound 0.1 µM
[22] = second compound 0.316 µM, first compound 1 µM
[23] = second compound 0.316 µM, first compound 3.16 µM
[24] = second compound 0.316 µM, first compound 10 µM
[25] = second compound 1 µM, first compound 0.1 µM
[26] = second compound 1 µM, first compound 1 µM
[27] = second compound 1 µM, first compound 3.16 µM
[28] = second compound 1 µM, first compound 10 µM
[29] = second compound 3.16 µM, first compound 0.1 µM
[30] = second compound 3.16 µM, first compound 1 µM
[31] = second compound 3.16 µM, first compound 3.16 µM
[32] = second compound 3.16 µM, first compound 10 µM
[33] = second compound 10 µM, first compound 0.1 µM
[34] = second compound 10 µM, first compound 1 µM
[35] = second compound 10 µM, first compound 3.16 µM
[36] = second compound 10 µM, first compound 10 µM
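Further: viability read after seven days of drug exposure.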
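Wherever viability, T/C is given: luminescence signal used as a proxy for viable cells; 100% = DMSO vehicle control wells.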

Cn1ncnc1[C@H]1c2n[nH]c(=O)c3cc(F)cc(c23)N[C@@H]1c1ccc(F)cc1 + Cc1cnc(CNC(=O)c2c(=O)c3ccc(N4CCCN(C)CC4)nc3n3c2sc2ccccc23)cn1
IC50 (second compound 0.0316 µM): < 0.999 nM | IC50 (second compound 0.1 µM): < 0.999 nM | IC50 (second compound 0.316 µM): < 0.999 nM | IC50 (second compound 1 µM): < 0.999 nM | IC50 (second compound 3.16 µM): < 0.999 nM | IC50 (second compound 10 µM): < 0.999 nM | viability, T/C (second compound 0.0316 µM, first compound 0.000999 µM): 47.9% | viability, T/C (second compound 0.0316 µM, first compound 0.00316 µM): 25.6% | viability, T/C (second compound 0.0316 µM, first compound 0.00999 µM): 39.7% | viability, T/C [1]: 24% | viability, T/C (second compound 0.0316 µM, first compound 0.0999 µM): 24.7% | viability, T/C [2]: 24.9% | viability, T/C (second compound 0.1 µM, first compound 0.000999 µM): 26.9% | viability, T/C (second compound 0.1 µM, first compound 0.00316 µM): 26.9% | viability, T/C (second compound 0.1 µM, first compound 0.00999 µM): 26.6% | viability, T/C [3]: 20.6% | viability, T/C (second compound 0.1 µM, first compound 0.0999 µM): 24.1% | viability, T/C [4]: 19.9% | viability, T/C (second compound 0.316 µM, first compound 0.000999 µM): 21% | viability, T/C (second compound 0.316 µM, first compound 0.00316 µM): 23.2% | viability, T/C (second compound 0.316 µM, first compound 0.00999 µM): 21.1% | viability, T/C [5]: 22.9% | viability, T/C (second compound 0.316 µM, first compound 0.0999 µM): 21.8% | viability, T/C [6]: 19.2% | viability, T/C (second compound 1 µM, first compound 0.000999 µM): 20.1% | viability, T/C (second compound 1 µM, first compound 0.00316 µM): 19% | viability, T/C (second compound 1 µM, first compound 0.00999 µM): 19.8% | viability, T/C [7]: 21% | viability, T/C (second compound 1 µM, first compound 0.0999 µM): 19.4% | viability, T/C [8]: 20.4% | viability, T/C (second compound 3.16 µM, first compound 0.000999 µM): 19% | viability, T/C (second compound 3.16 µM, first compound 0.00316 µM): 18.6% | viability, T/C (second compound 3.16 µM, first compound 0.00999 µM): 21.6% | viability, T/C [9]: 19.7% | viability, T/C (second compound 3.16 µM, first compound 0.0999 µM): 21.7% | viability, T/C [10]: 19.2% | viability, T/C (second compound 10 µM, first compound 0.000999 µM): 15.2% | viability, T/C (second compound 10 µM, first compound 0.00316 µM): 18.5% | viability, T/C (second compound 10 µM, first compound 0.00999 µM): 21.9% | viability, T/C [11]: 19.4% | viability, T/C (second compound 10 µM, first compound 0.0999 µM): 21.9% | viability, T/C [12]: 19.2%

Cc1cccc(N(C)C(=O)C2C(O)CCN2c2nc(C)cc(C(F)(F)F)c2C#N)c1 (stereo unspecified) + Cc1[nH]c2ccc(F)cc2c1-c1nc2c3cccnc3c3ncccc3c2[nH]1
IC50 (second compound 0.0316 µM): 3160 nM | IC50 (second compound 0.1 µM): > 10000 nM | IC50 (second compound 0.316 µM): > 10000 nM | IC50 (second compound 1 µM): > 10000 nM | IC50 (second compound 3.16 µM): < 31.6 nM | IC50 (second compound 10 µM): > 10000 nM | viability, T/C [1]: 89% | viability, T/C [13]: 77.5% | viability, T/C [2]: 89.5% | viability, T/C [14]: 39.3% | viability, T/C [15]: 61.9% | viability, T/C [16]: 61% | viability, T/C [3]: 76.3% | viability, T/C [17]: 90.3% | viability, T/C [4]: 81% | viability, T/C [18]: 57.7% | viability, T/C [19]: 79% | viability, T/C [20]: 69.2% | viability, T/C [5]: 71.4% | viability, T/C [21]: 85.8% | viability, T/C [6]: 97.8% | viability, T/C [22]: 48.6% | viability, T/C [23]: 77.5% | viability, T/C [24]: 72.4% | viability, T/C [7]: 62.8% | viability, T/C [25]: 65.3% | viability, T/C [8]: 72.4% | viability, T/C [26]: 54.9% | viability, T/C [27]: 49.9% | viability, T/C [28]: 54.2% | viability, T/C [9]: 37.2% | viability, T/C [29]: 40.3% | viability, T/C [10]: 54.2% | viability, T/C [30]: 48.6% | viability, T/C [31]: 39.1% | viability, T/C [32]: 41.3% | viability, T/C [11]: 65.1% | viability, T/C [33]: 58.8% | viability, T/C [12]: 80.8% | viability, T/C [34]: 55.1% | viability, T/C [35]: 81% | viability, T/C [36]: 56.4%

COc1cc(C2c3cc4c(cc3C(OC3OC5COC(C)OC5C(O)C3O)C3COC(=O)C23)OCO4)cc(OC)c1O (stereo unspecified) + Cc1cnc(CNC(=O)c2c(=O)c3ccc(N4CCCN(C)CC4)nc3n3c2sc2ccccc23)cn1
IC50 (second compound 0.0316 µM): < 31.6 nM | IC50 (second compound 0.1 µM): < 31.6 nM | IC50 (second compound 0.316 µM): < 31.6 nM | IC50 (second compound 1 µM): < 31.6 nM | IC50 (second compound 3.16 µM): < 31.6 nM | IC50 (second compound 10 µM): < 31.6 nM | viability, T/C [1]: 28.9% | viability, T/C [13]: 21.4% | viability, T/C [2]: 18.5% | viability, T/C [14]: 14.2% | viability, T/C [15]: 13.7% | viability, T/C [16]: 10.5% | viability, T/C [3]: 25.8% | viability, T/C [17]: 22.7% | viability, T/C [4]: 18.6% | viability, T/C [18]: 13.6% | viability, T/C [19]: 16.5% | viability, T/C [20]: 12.9% | viability, T/C [5]: 22.2% | viability, T/C [21]: 21.3% | viability, T/C [6]: 17.8% | viability, T/C [22]: 16.4% | viability, T/C [23]: 17% | viability, T/C [24]: 13.2% | viability, T/C [7]: 21.5% | viability, T/C [25]: 19.1% | viability, T/C [8]: 17.6% | viability, T/C [26]: 18.9% | viability, T/C [27]: 17.8% | viability, T/C [28]: 12.5% | viability, T/C [9]: 19.3% | viability, T/C [29]: 16.4% | viability, T/C [10]: 19.6% | viability, T/C [30]: 19.2% | viability, T/C [31]: 18.2% | viability, T/C [32]: 13.4% | viability, T/C [11]: 17.8% | viability, T/C [33]: 18.5% | viability, T/C [12]: 19.4% | viability, T/C [34]: 19.2% | viability, T/C [35]: 17.7% | viability, T/C [36]: 12.3%
